In PMC5571359, “Screening the Medicines for Malaria Venture Pathogen Box across Multiple Pathogens Reclassifies Starting Points for Open-Source Drug Discovery” (Antimicrobial Agents and Chemotherapy, 2017):
Like-named read-outs stand apart in the source and are kept apart here.

What was measured:
HEK293 cells = assay: HEK293 resazurin cell cytotoxicity assay; conditions: Homo sapiens
T. brucei brucei = conditions: ref Pbox supporting information; read-out: T.b. brucei Pbox IC50; cited from earlier work
[1] = test system: T. cruzi C4 β-galactosidase reporter parasite in MRC 5SV2 host cells; conditions: cited from earlier work
[2] = test system: L. infanium (macrophages); set-up: method as in Pbox supporting information; conditions: ref Pbox supporting information; cited from earlier work
T. brucei rhodesiense = conditions: ref Pbox supporting information, cited from earlier work; for IC50: read-out: T .b. rohdensie Pbox IC50
[3] = test system: T. cruzi intracellular amastigotes; assay: Intracellular anti-Trypanosoma cruzi image-based assay (amastigotes); type: cell-based; conditions: for IC50: Trypanosoma cruzi
[4] = test system: T. b. brucei 427 bloodstream trypanosomes; assay: T. b. brucei resazurin viability assay; type: cell-based, Trypanosoma brucei brucei
HepG2 = conditions: cited from earlier work; for CC50: read-out: HepG2 PBox CC50 µM
liver stage = conditions: cited from earlier work
P. falciparum ABS = conditions: cited from earlier work; for EC50: ChEMBL Data; for IC50: read-out: Pf 3D7 Pbox IC50
[5] = test system: P. falciparum stage V gametocytes; conditions: cited from earlier work; for IC50: stage V gametocytes, read-out: PF stage V GAMS PBox IC50; for activity against gametocytes (stage V), PBox supporting information: ref Pbox supporting information
[6] = test system: NF54-pfs16-LUC-GFP stage IV gametocytes; assay: Plasmodium falciparum late stage gametocyte (LSG) image-based assay; type: cell-based; conditions: for IC50: Plasmodium falciparum
[7] = test system: Plasmodium falciparum 3D7 asexual blood stage; assay: microbe, parasite or virus in culture
[8] = test system: L. donovani MHOM/IN/80/DD8 intracellular amastigotes; assay: Leishmania donovani intracellular amastigote assay in THP-1 cells; type: cell-based; conditions: Leishmania donovani, THP-1; intracellular amastigotes; some values marked *; read-out: L, donovani Discovery Biology IC50
[9] = HEK293, read-out: HEK % Inhibition 20uM/IC50 Discovery Biology
[10] = ref Pbox supporting information, read-out: T. cruzi Pbox IC50
[11] = Trypanosoma brucei; read-out: T b.brucei Discovery Biology IC50
[12] = ref PBox supporting information
[13] = liver stage, ref Pathogen Box supporting information, read-out: LIVER STAGE Pbox IC50
[14] = Pf 3D7, ref Pathogen Box supporting information
[15] = HepG2 CC50, ref Pathogen Box supporting information
[16] = ref Pathogen Box supporting information
[17] = HEK293, read-out: HEK % Inhibition 20uM/IC50 Discovery Biology (IA)
[18] = P. falciparum 3D7, ref PBox supporting information
[19] = NF54, read-out: Pf Stage IV GAMS Discovery Biology IC50 µM, stage IV gametocytes
[20] = 3D7, read-out: Antiplasmodial IC50 (ABS), PBox compounds, P. falciparum 3D7

Compound | IC50 (T. brucei brucei) | IC50 [1, 10] | IC50 [2] | IC50 (T. brucei rhodesiense) | IC50 [4, 11] | HepG2 PBox CC20 (HepG2; [12]) | IC50 (HEK293 cells; [17]) | IC50 (P. falciparum ABS; [18]) | activity in the Discovery Biology stage IV gametocyte (LSG) assay [6] | IC50 [6, 19] | activity against gametocytes (stage V), PBox supporting information [5] | IC50 [5, 12] | further results
CCCCN(CCCC)c1c(C#N)cc(S(=O)(=O)Nc2ccccc2)cc1C#N [MMV688467] | 260 nM | 820 nM | 13600 nM | 240 nM | 1150 nM | 11900 nM |  |  |  |  |  |  | IC50 (HEK293 cells; [9]): > 20000 nM; IC50 ([3]; PBox compounds, intracellular amastigotes, 48 h exposure, read-out: IC50 T. cruzi (Discovery Biology)): 3980 nM
Cc1ccc(NC(=O)c2nc[nH]c2C(=O)Nc2nc3ccccc3[nH]2)c(C)c1 [MMV011903] |  |  |  |  |  |  |  |  |  |  |  |  | IC50 (liver stage; [13]): > 10000 nM; EC50 (P. falciparum ABS; NITD, read-out: NITD (ref 94) EC50): 730 nM; IC50 (P. falciparum ABS; [14]): 360 nM; CC50 (HepG2; [15]): > 10 µM; IC50 [5, 16]: > 8300 nM
c1ccc(-c2cc(N3CCCCC3)c3ccccc3n2)nc1 [MMV560185] |  |  |  |  |  |  | > 20000 nM | > 2000 nM | demonstrate activity | 0.71 µM | demonstrate activity | 510 nM | IC50 (liver stage; ref Pbox supporting information): 9700 nM; CC50 (HepG2; [12]): > 10 µM
CCCn1c(NC(=O)c2ccc3ccccc3n2)nc2ccccc21 [MMV1030799] |  |  |  |  |  |  | > 20000 nM | > 2000 nM | demonstrate activity | 2.5 µM | demonstrate activity | 560 nM | IC50 ([7]; 3D7, read-out: Pf 3D7 Discovery Biology IC50 µM, P. falciparum 3D7 asexual blood stage): 2.59 µM
O=C(NCc1nnc2n1CCCCC2)c1ccc(-c2ccc(F)cc2)o1 [MMV688796] | 100 nM | 2070 nM | > 64000 nM | 130 nM | 230 nM |  |  |  |  |  |  |  | IC50 (HEK293 cells; [9]): > 20000 nM; activity against T. brucei rhodesiense (T. brucei rhodesiense): demonstrated activity; IC50 ([3]; intracellular amastigotes, read-out: T cruzi Discovery Biology IC50): 1520 nM
O=C(Nc1nc(-c2ccccn2)cs1)C1CC1c1ccccc1F (stereo not shown) [MMV1028806] |  |  |  |  |  |  | > 20000 nM | > 2000 nM | demonstrate activity | 0.42 µM | demonstrate activity | 520 nM | 
CCN(CC)S(=O)(=O)c1ccc(Cl)c(C(=O)Nc2ccc3nc(C)sc3c2)c1 [MMV019721] |  |  |  |  |  |  |  |  |  |  |  |  | IC50 (liver stage; [13]): 1310 nM; IC50 ([7]; 3D7, read-out: Pf 3D7 Discovery Biology IC50 µM, P. falciparum 3D7 asexual blood stage, Discovery Biology): 0.78 µM; EC50 (P. falciparum ABS; TCMDC, read-out: TCMDC (ref 93) EX50): 800 nM; IC50 (P. falciparum ABS; [14]): 500 nM; IC50 ([6]; NF54, read-out: Pf Stage IV GAMS Discovery Biology IC50 µM, stage IV gametocytes, Discovery Biology): 0.79 µM; CC50 (HepG2; [15]): > 10 µM; IC50 [5, 16]: 3910 nM
Cc1cc(C)nc(-n2nc(C)cc2Nc2ccccc2)n1 [MMV062221] |  |  |  |  |  |  | > 20000 nM | > 2000 nM | demonstrate activity | 0.57 µM | demonstrate activity | 220 nM | 
O=C(Nc1ccc2c(c1)B(O)OC2)c1ccccc1C(F)(F)F [MMV652003] | 150 nM | 270 nM | 1410 nM | 230 nM | 110 nM | 400 nM |  |  |  |  |  |  | inhibition at 20 µM (HEK293 cells; [9]): 78%; IC50 [7, 20]: 0.92 µM; IC50 [8]: 1250 nM
Cc1nn(C)c(C)c1NS(=O)(=O)c1c(Cl)cc(-c2ccnc(N3CCNCC3)c2)cc1Cl [MMV688180] | < 130 nM | 850 nM | 1010 nM | < 130 nM |  | 45.4 nM |  |  |  |  |  |  | IC50 (HEK293 cells; HEK293, read-out: HEK % Discovery Biology IC50): 660 nM; IC50 ([7]; 3D7, read-out: Pf 3D7 Discovery Biology IC50, P. falciparum 3D7 asexual blood stage): 0.63 µM; IC50 ([3]; read-out: T cruzi Discovery Biology IC50): 2910 nM; IC50 ([4]; Trypanosoma brucei, read-out: T b.brucei Discovery Biology IC50): 10 nM
N=C(N)Nc1ccc(-c2ccc(-c3ccc(NC(=N)N)cc3Cl)o2)c(Cl)c1 [MMV688179] | 1030 nM | 290 nM | 1010 nM | 230 nM | 5680 nM | 6800 nM |  |  |  |  |  |  | IC50 (HEK293 cells; [9]): > 20000 nM; IC50 ([1]; 7 days exposure, ref PBox supporting information, read-out: T. cruzi IC50 in the PBox supporting information file): < 1000 nM; IC50 [7, 20]: 0.59 µM; activity against T. cruzi in the Discovery Biology assay [3]: lack of activity; activity against T. cruzi at 8 μM in the Discovery Biology assay ([3]; 8 μM): no activity; IC50 ([6]; NF54, read-out: Pf Stage IV GAMS Discovery Biology IC50, stage IV gametocytes): 4.1 µM
